Results: patent US7138361B2, “Herbicidal heterocycles” (E. I. du Pont de Nemours and Company, priority 2000, dated 2006)

Experiments:
Type in all cases: in vivo
[1] = system: Surinam grass (Brachiaria decumbens); experiment: Test B postemergence; details: 13 to 15 days
Method in brief: (§1)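 Preemergence: seeds planted and treated with test chemicals in non-phytotoxic solvent with surfactant; postemergence on plants 2–18 cm (1- to 4-leaf stage). Kept in greenhouse 13–15 days, then visually rated against controls on a 0 (no effect) to 100 (complete control) scale.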

[2] = system: barnyardgrass (Echinochloa crus-galli); experiment: Test B postemergence; details: 13 to 15 days
Method in brief: as §1

[3] = system: blackgrass (Alopecurus myosuroides); experiment: Test B postemergence; details: 13 to 15 days
Method in brief: as §1

[4] = system: cocklebur (Xanthium strumarium); experiment: Test B postemergence; details: 13 to 15 days
Method in brief: as §1

[5] = system: corn (Zea mays); experiment: Test B postemergence; details: 13 to 15 days
Method in brief: as §1

[6] = system: crabgrass (Digitaria sanguinalis); experiment: Test B postemergence; details: 13 to 15 days
Method in brief: as §1

[7] = system: giant foxtail (Setaria faberii); experiment: Test B postemergence; details: 13 to 15 days
Method in brief: as §1

[8] = system: lambsquarters (Chenopodium album); experiment: Test B postemergence; details: 13 to 15 days
Method in brief: as §1

[9] = system: morning glory (Ipomoea hederacea); experiment: Test B postemergence; details: 13 to 15 days
Method in brief: as §1

[10] = system: pigweed (Amaranthus retroflexus); experiment: Test B postemergence; details: 13 to 15 days
Method in brief: as §1

[11] = system: velvetleaf (Abutilon theophrasti); experiment: Test B postemergence; details: 13 to 15 days
Method in brief: as §1

[12] = system: wheat (Triticum aestivum); experiment: Test B postemergence; details: 13 to 15 days
Method in brief: as §1

[13] = system: wild oat (Avena fatua); experiment: Test B postemergence; details: 13 to 15 days
Method in brief: as §1

[14] = system: Surinam grass (Brachiaria decumbens); experiment: Test B preemergence; details: scale 0 to 100, 0 no effect, 100 complete control
Method in brief: as §1

[15] = system: barnyardgrass (Echinochloa crus-galli); experiment: Test B preemergence; details: scale 0 to 100, 0 no effect, 100 complete control
Method in brief: as §1

[16] = system: cocklebur (Xanthium strumarium); experiment: Test B preemergence; details: scale 0 to 100, 0 no effect, 100 complete control
Method in brief: as §1

[17] = system: corn (Zea mays); experiment: Test B preemergence; details: scale 0 to 100, 0 no effect, 100 complete control
Method in brief: as §1

[18] = system: crabgrass (Digitaria sanguinalis); experiment: Test B preemergence; details: scale 0 to 100, 0 no effect, 100 complete control
Method in brief: as §1

[19] = system: giant foxtail (Setaria faberii); experiment: Test B preemergence; details: scale 0 to 100, 0 no effect, 100 complete control
Method in brief: as §1

[20] = system: lambsquarters (Chenopodium album); experiment: Test B preemergence; details: scale 0 to 100, 0 no effect, 100 complete control
Method in brief: as §1

[21] = system: morning glory (Ipomoea hederacea); experiment: Test B preemergence; details: Preemergence, Rate 500 g/ha; scale 0 to 100, 0 no effect, 100 complete control
Method in brief: as §1

[22] = system: pigweed (Amaranthus retroflexus); experiment: Test B preemergence; details: Preemergence, Rate 500 g/ha; scale 0 to 100, 0 no effect, 100 complete control
Method in brief: as §1

[23] = system: rice (Oryza saliva); experiment: Test B preemergence; details: Preemergence, Rate 500 g/ha; scale 0 to 100, 0 no effect, 100 complete control
Method in brief: as §1

[24] = system: velvetleaf (Abutilon theophrasti); experiment: Test B preemergence; details: Preemergence, Rate 500 g/ha; scale 0 to 100, 0 no effect, 100 complete control
Method in brief: as §1

[25] = system: smallflower flatsedge (Cyperus difformis); experiment: Test C flooded paddy test; details: for Flatsedge plant response rating: Flooded Paddy, scale 0 to 100, 0 no effect, 100 complete control; for Plant response rating, Flatsedge: flooded paddy test, scale 0 to 100 (0 no effect, 100 complete control)
Method in brief: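 Flooded paddy, 2-leaf stage at treatment. Readout: visual % control vs untreated, 0–100, at 12–14 d in greenhouse.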

[26] = system: Nightshade; experiment: Test C preemergence; details: Rate 250 g/ha, visual evaluation after 12 to 14 days
[27] = system: Sunflower; experiment: Test C preemergence; details: Rate 250 g/ha, visual evaluation after 12 to 14 days
[28] = Rate 125 g/ha, scale 0 (no effect) to 100 (complete control)
[29] = Rate 500 g/ha, scale 0 to 100, 0 is no effect, 100 is complete control

Structure (SMILES): O=C1C(n2ccc(C3CCC3)n2)OCN1c1cccc(C(F)(F)F)c1 (stereo not shown) [Compound 39]
- Plant response rating, Surinam grass [1, 28]: 0
- Plant response rating, Surinam grass [1, 29]: 0
- Plant response rating, Barnyardgrass [2, 28]: 0
- Plant response rating, Barnyardgrass [2, 29]: 100
- Plant response rating, Blackgrass [3, 28]: 0
- Plant response rating, Blackgrass [3, 29]: 0
- Plant response rating, Cocklebur [4, 28]: 0
- Plant response rating, Cocklebur [4, 29]: 0
- Plant response rating, Corn [5, 28]: 0
- Plant response rating, Corn [5, 29]: 10
- Plant response rating, Crabgrass [6, 28]: 0
- Plant response rating, Crabgrass [6, 29]: 70
- Plant response rating, Foxtail, Giant [7, 28]: 0
- Plant response rating, Foxtail, Giant [7, 29]: 0
- Plant response rating, Lambsquarters [8, 28]: 70
- Plant response rating, Lambsquarters [8, 29]: 90
- Plant response rating, Morningglory [9, 28]: 0
- Plant response rating, Morningglory [9, 29]: 0
- Plant response rating, Pigweed [10, 28]: 60
- Plant response rating, Pigweed [10, 29]: 90
- Plant response rating, Velvetleaf [11, 28]: 0
- Plant response rating, Velvetleaf [11, 29]: 0
- Plant response rating, Wheat [12, 28]: 0
- Plant response rating, Wheat [12, 29]: 0
- Plant response rating, Wild Oat [13, 28]: 0
- Plant response rating, Wild Oat [13, 29]: 0
- Plant response rating, Surinam grass ([14]; Preemergence, Rate 500 g/ha): 20
- Plant response rating, Surinam grass ([14]; preemergence, Rate 125 g/ha): 20
- Plant response rating, Barnyardgrass ([15]; Preemergence, Rate 500 g/ha): 100
- Plant response rating, Barnyardgrass ([15]; preemergence, Rate 125 g/ha): 50
- Plant response rating, Cocklebur ([16]; Preemergence, Rate 500 g/ha): 0
- Plant response rating, Cocklebur ([16]; preemergence, Rate 125 g/ha): 0
- Plant response rating, Corn ([17]; Preemergence, Rate 500 g/ha): 0
- Plant response rating, Corn ([17]; preemergence, Rate 125 g/ha): 0
- Plant response rating, Crabgrass ([18]; Preemergence, Rate 500 g/ha): 100
- Plant response rating, Crabgrass ([18]; preemergence, Rate 125 g/ha): 0
- Plant response rating, Foxtail, Giant ([19]; Preemergence, Rate 500 g/ha): 100
- Plant response rating, Foxtail, Giant ([19]; preemergence, Rate 125 g/ha): 30
- Plant response rating, Lambsquarters ([20]; Preemergence, Rate 500 g/ha): 100
- Plant response rating, Lambsquarters ([20]; preemergence, Rate 125 g/ha): 100
- Plant response rating, Morningglory [21]: 0
- Plant response rating, Pigweed [22]: 100
- Plant response rating, Rice [23]: 0
- Plant response rating, Velvetleaf [24]: 0
- Flatsedge plant response rating ([25]; Rate 250 g/ha): 100
- Flatsedge plant response rating ([25]; Rate 500 g/ha): 100
- Plant response rating, Flatsedge ([25]; Rate 62 g/ha): 90
- Plant response rating, Flatsedge ([25]; Rate 125 g/ha): 100
- Plant response rating (0 to 100), Nightshade [26]: 0
- Plant response rating (0 to 100), Sunflower [27]: 0

Structure (SMILES): CCC(C)c1ccn(C2SCN(c3cccc(OC(F)(F)F)c3)C2=O)n1 (stereo not shown) [Compound 40]
- Plant response rating, Surinam grass [1, 28]: 0
- Plant response rating, Surinam grass [1, 29]: 0
- Plant response rating, Barnyardgrass [2, 28]: 90
- Plant response rating, Barnyardgrass [2, 29]: 100
- Plant response rating, Blackgrass [3, 28]: 0
- Plant response rating, Blackgrass [3, 29]: 0
- Plant response rating, Cocklebur [4, 28]: 30
- Plant response rating, Cocklebur [4, 29]: 50
- Plant response rating, Corn [5, 28]: 0
- Plant response rating, Corn [5, 29]: 50
- Plant response rating, Crabgrass [6, 28]: 60
- Plant response rating, Crabgrass [6, 29]: 90
- Plant response rating, Foxtail, Giant [7, 28]: 70
- Plant response rating, Foxtail, Giant [7, 29]: 90
- Plant response rating, Lambsquarters [8, 28]: 70
- Plant response rating, Lambsquarters [8, 29]: 90
- Plant response rating, Morningglory [9, 28]: 10
- Plant response rating, Morningglory [9, 29]: 20
- Plant response rating, Pigweed [10, 28]: 40
- Plant response rating, Pigweed [10, 29]: 80
- Plant response rating, Velvetleaf [11, 28]: 0
- Plant response rating, Velvetleaf [11, 29]: 0
- Plant response rating, Wheat [12, 28]: 0
- Plant response rating, Wheat [12, 29]: 0
- Plant response rating, Wild Oat [13, 28]: 0
- Plant response rating, Wild Oat [13, 29]: 0
- Plant response rating, Surinam grass ([14]; Preemergence, Rate 500 g/ha): 90
- Plant response rating, Surinam grass ([14]; preemergence, Rate 125 g/ha): 60
- Plant response rating, Barnyardgrass ([15]; Preemergence, Rate 500 g/ha): 100
- Plant response rating, Barnyardgrass ([15]; preemergence, Rate 125 g/ha): 100
- Plant response rating, Cocklebur ([16]; Preemergence, Rate 500 g/ha): 0
- Plant response rating, Cocklebur ([16]; preemergence, Rate 125 g/ha): 0
- Plant response rating, Corn ([17]; Preemergence, Rate 500 g/ha): 60
- Plant response rating, Corn ([17]; preemergence, Rate 125 g/ha): 0
- Plant response rating, Crabgrass ([18]; Preemergence, Rate 500 g/ha): 100
- Plant response rating, Crabgrass ([18]; preemergence, Rate 125 g/ha): 100
- Plant response rating, Foxtail, Giant ([19]; Preemergence, Rate 500 g/ha): 100
- Plant response rating, Foxtail, Giant ([19]; preemergence, Rate 125 g/ha): 70
- Plant response rating, Lambsquarters ([20]; Preemergence, Rate 500 g/ha): 100
- Plant response rating, Lambsquarters ([20]; preemergence, Rate 125 g/ha): 100
- Plant response rating, Morningglory [21]: 60
- Plant response rating, Pigweed [22]: 100
- Plant response rating, Rice [23]: 100
- Plant response rating, Velvetleaf [24]: 0
- Flatsedge plant response rating ([25]; Rate 250 g/ha): 100
- Flatsedge plant response rating ([25]; Rate 500 g/ha): 100
- Plant response rating, Flatsedge ([25]; Rate 62 g/ha): 100
- Plant response rating, Flatsedge ([25]; Rate 125 g/ha): 100
- Plant response rating (0 to 100), Nightshade [26]: 40
- Plant response rating (0 to 100), Sunflower [27]: 30
